Experimental data reported in patent US12350250B2, “Aggrelytes for treating ocular conditions” (The Regents of the University of Colorado, a Body Corporate, priority 2022, dated 2025).

Experiments:
[1] = tested on: water-insoluble (WI) proteins from human lenses; assay: Solubilization of water-insoluble (WI) proteins from human lenses (BCA protein assay of supernatant); type: biochemical; details: 500 μM; for protein in the supernatant / solubilized protein, % of the initial WI protein / solubilized protein, % of the initial protein: ten human lenses (65 to 75 years)
Protocol: Human lenses (donor age: 55-75 years) were obtained from Saving Sight, Kansas City, MO, and Lions Eye Institute for Transplant & Research, Tampa, FL. The lenses were harvested within 36 hours postmortem, stored with (when used for culturing) or without minimum essential medium (MEM), and shipped to the inventors' laboratory on ice or frozen on dry ice. Lenses shipped on dry ice (used in the presently described and other solubility studies) were stored at −80° C. until use. Each frozen lens was thawed on ice and homogenized with 1.5 mL of PBS in a hand-held glass homogenizer. The homogenate was centrifuged at 20,000×g for 20 min at 4° C. The supernatant was discarded, and the pellet was suspended in 1 mL of homogenization buffer and centrifuged at 20,000×g for 20 min at 4° C. The resulting pellet was lyophilized and designated the water-insoluble (WI) fraction.
In the present example, the ability of aggrelytes to solubilize WI proteins from a human lens was investigated. Stock solutions (10 mM) of Aggrelyte-2 and Aggrelyte-2C were prepared in 50 mM phosphate buffer. The WI fraction (2 mg) was incubated in 50 mM sodium phosphate buffer (0.4 mL), pH 7.4, at 37° C. with aggrelyte at a final concentration of 0-2000 μM. The mixture was incubated at 37° C. with shaking for 24 or 48 hours after adding 0.002% sodium azide to prevent bacterial growth. After incubation, the samples were centrifuged at 20,000×g for 20 min at 4° C., and the supernatants were collected. Protein in the supernatant was measured using a BCA Protein Assay Kit from Thermo Scientific (Waltham, MA) using BSA as the standard.
WI fractions from ten aged human lenses (65 to 75 years) were prepared as in Example 3. The WI fractions (2 mg) were incubated in 50 mM sodium phosphate buffer (0.4 mL), pH 7.4, at 37° C. with 500 μM aggrelyte for 24 or 48 hours. Each sample was separately processed three times and analyzed (mean±S.D.).

[2] = tested on: acetyllysine (AcK)-bearing proteins in solubilized human lens WI proteins; assay: AcK-bearing proteins in solubilized human lens proteins (Western blot densitometry); type: biochemical; details: 500 μM, solubilized proteins of ten human lenses (65 to 75 years), vs Control
Text: Chemiluminescence was detected using an Enhanced Chemiluminescence Detection Kit (Thermo Scientific). Then the membrane was stained with Ponceau-S to visualize the proteins and normalize the detected AcK-bearing protein to the total protein load via densitometry.

γ-crystallin (γC) = assay: Crystallin levels in solubilized human lens proteins (Western blot), γC; type: biochemical; details: 500 μM, solubilized proteins of three human lenses
Protocol: The contents of crystalline proteins [αA-crystallin (αAC), αB-crystallin (αBC), β-crystallin (βC), and γ-crystallin (γC)] in the solubilized proteins of three human lenses treated with either Aggrelyte-2 or Aggrelyte-2C (500 μM) from Example 4 were determined by Western blot analysis as described for Example 5. Membranes were incubated with antibodies against αAC (1:14,000 dilution; Enzo Life Sciences, Catalog #ADI-SPA-221D), αBC (1:700,000 dilution; University of Iowa), βC (1:14,000 dilution; Santa Cruz Biotechnology, Catalog #sc-22745), and γC (1:7,000 dilution; Santa Cruz Biotechnology, Catalog #sc-22746). The secondary antibodies were HRP-conjugated anti-mouse IgG for αBC and HRP-conjugated […] (Cell Signaling Technology, Catalog #7074S) for αAC, βC, and γC. According to the supplier, the […] detects mostly βB1-crystallin and, to a lesser extent, βA1/3, βA2, βA4, βB2, and βB3-crystallin. The γC antibody reacts with γA, γB, γC, γD, γE, and γF-crystallin.

human lenses [3] = assay: Stiffness and axial strain of ex vivo human lenses (Example 10); details: 1 mM, 72 h; for lens stiffness (displacement) vs untreated controls: human lenses (42-68 years), loads of 500 mg and 1000 mg; for axial strain vs controls: human lenses, 500 mg and 1000 mg loads
Protocol: In this example, the lenses were dissected from the eyes of mice (C57BL/6J, 5-8 months old, Jackson Laboratories, Stock No. 000664, n=4-5) by a posterior approach and incubated without (“Control”) or with Aggrelyte-2 or Aggrelyte-2C (1 mM) for 24 hours in serum-free and phenol-red-free MEM (297 mOsm) at 37° C. Lens stiffness was measured as previously described in Baradia, H. et al., (2010) Exp. Eye Res. 91, 300-307. Briefly, the lens was placed on a flat platform with the anterior side facing up, and a load was applied to the top of the lens at 100 mg increments for mouse lenses and at 250 mg increments for human lenses. The displacement in the lens axial diameter (in μm or mm) was measured using MATLAB software developed by Dr. Adrian Glasser, UK, and plotted against the load applied. The displacement at a specific load was used to determine differences in lens stiffness between the untreated control and aggrelyte-treated lenses.
Freshly obtained human lenses (42-68 years old, n=10-12) were incubated with or without Aggrelyte-2 or Aggrelyte-2C (1 mM) for a total of 72 h in phenol red-free MEM with a change in media containing freshly dissolved aggrelytes every 24 h. One lens from each donor pair was used as the control, and the other was treated with aggrelyte. After incubation, the lens stiffness was measured as described above. Axial strain was also calculated based on the following formula: […]

human lenses [4] = assay: Water-soluble (WS) protein content of aggrelyte-treated human lenses; details: 1 mM, 72 h
Protocol: Water soluble (WS) proteins were obtained from both mouse and human lenses. For mouse lenses, WS protein was obtained by homogenizing each mouse lens in 0.2 mL of PBS, followed by centrifugation at 20,000×g for 20 min at 4° C. […] The remaining nucleus was homogenized in 1 mL phosphate buffer. Both cortical and nuclear protein extracts were centrifuged at 20,000×g for 20 min at 4° C. to obtain the soluble protein in the supernatant. In another set of experiments, human lenses (42-64 years), following incubation with aggrelytes as described in the foregoing examples, were each homogenized with 1.5 mL 50 mM phosphate buffer, pH 7.4. The homogenate was centrifuged at 20,000×g for 20 min to obtain a supernatant. Protein in the supernatant was evaluated to determine the effect of aggrelyte treatment on the soluble protein content in the lens.

human lenses [5] = assay: AcK in WS cortical and nuclear fractions of treated human lenses (LC-MS/MS); details: 1 mM, 72 h, vs untreated controls
Protocol: Mouse and human lenses were treated with aggrelytes as described in Example 10. Water-soluble proteins from mouse and human lenses were obtained as described in Example 13. Effects of aggrelyte treatment on AcK-bearing proteins in the WS fractions were evaluated by LC-MS/MS analysis as described in Example 6.

human (60-62 years) lens = assay: Human lens transparency (separate study); details: data not shown
Text: The reduction in stiffness was similar at 400- and 500-mg loads (FIGS. 21C and 21D, respectively).

| Compound | protein in the supernatant ([1]; 24-hour incubation) [µg/µL] | solubilized protein, % of the initial WI protein ([1]; 24-hour incubation) | solubilizing WI proteins, fold better than Control or Aggrelyte-2C ([1]; 24 and 48 hours, combined ten lenses) [fold] | protein in the supernatant ([1]; 48-hour incubation) [µg/µL] | solubilized protein, % of the initial protein ([1]; 48-hour incubation) | amount of AcK-bearing proteins (Western blot densitometry) [2] | levels of γC vs Controls (γ-crystallin (γC)) | lens stiffness (displacement) vs untreated controls (human lenses [3]) | axial strain vs controls (human lenses [3]) | WS content, % higher than in the untreated controls (contralateral lenses) (human lenses [4]) [%] | AcK content, cortical protein fraction (LC-MS/MS) (human lenses [5]) | AcK, nuclear fraction (LC-MS/MS) (human lenses [5]) | lens transparency compared to vehicle-treated lenses (human (60-62 years) lens) | protein solubility, fold less than that of Aggrelyte-2 ([1]; 48 hours, human lens) [fold] |
| --- | --- | --- | --- | --- | --- | --- | --- | --- | --- | --- | --- | --- | --- | --- |
| COC(=O)[C@H](CSC(C)=O)NC(C)=O [Aggrelyte-2, N,S-diacetyl-L-cysteine methyl ester] | 0.97 to 1.30 | 20-26% | ~1.4 | 0.96 to 1.48 | 19-30% | significantly (p<0.001) increased | slightly but not significantly higher | significantly (p<0.01) reduced lens stiffness | significantly (p<0.01) reduced the axial strain | 13.2 | Significantly higher (p<0.05) | not statistically greater | did not reduce or otherwise change |  |
| COC(=O)[C@H](CS)NC(C)=O [Aggrelyte-2C, N-acetyl-L-cysteine methyl ester] | 0.72 to 0.97 | 14-19% |  | 0.68 to 1.12 | 14-22% | did not increase the AcK levels | no effect | did not demonstrate significant effects on displacement | did not have a significant effect | 4.6 |  |  | did not reduce or otherwise change | ~1.4 |
